In ChEMBL document CHEMBL4028875, “Design of Leucine-Rich Repeat Kinase 2 (LRRK2) Inhibitors Using a Crystallographic Surrogate Derived from Checkpoint Kinase 1 (CHK1)” (J Med Chem, 2017):

Columns and labels:
[1] = target: T1, Serine/threonine-protein kinase TAO3 (Homo sapiens) (UniProt Q9H2K8); experiment: Inhibition of TAO3 in human PBMC at 1 uM
T1 sequence (whole entry): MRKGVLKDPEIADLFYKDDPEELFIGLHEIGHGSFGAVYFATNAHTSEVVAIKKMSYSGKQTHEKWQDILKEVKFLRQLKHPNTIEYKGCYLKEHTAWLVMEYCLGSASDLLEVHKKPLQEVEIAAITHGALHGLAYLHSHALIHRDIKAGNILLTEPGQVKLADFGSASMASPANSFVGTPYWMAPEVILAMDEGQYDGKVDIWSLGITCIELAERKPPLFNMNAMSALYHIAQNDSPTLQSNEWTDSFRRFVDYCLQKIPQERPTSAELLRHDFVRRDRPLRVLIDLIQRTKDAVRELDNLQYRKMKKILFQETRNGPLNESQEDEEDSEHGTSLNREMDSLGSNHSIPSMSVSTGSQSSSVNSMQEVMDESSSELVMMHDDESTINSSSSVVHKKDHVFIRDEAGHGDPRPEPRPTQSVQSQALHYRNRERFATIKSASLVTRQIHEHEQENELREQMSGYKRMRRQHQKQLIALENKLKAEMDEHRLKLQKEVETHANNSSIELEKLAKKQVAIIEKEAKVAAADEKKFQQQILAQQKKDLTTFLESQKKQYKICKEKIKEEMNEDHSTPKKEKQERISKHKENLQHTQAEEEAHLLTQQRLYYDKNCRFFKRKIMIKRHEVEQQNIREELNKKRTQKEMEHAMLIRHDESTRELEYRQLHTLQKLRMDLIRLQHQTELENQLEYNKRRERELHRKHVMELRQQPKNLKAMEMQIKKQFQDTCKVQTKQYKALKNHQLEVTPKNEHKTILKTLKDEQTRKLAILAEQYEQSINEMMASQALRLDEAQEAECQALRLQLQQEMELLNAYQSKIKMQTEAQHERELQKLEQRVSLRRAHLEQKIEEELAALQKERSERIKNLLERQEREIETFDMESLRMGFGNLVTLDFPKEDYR

[2] = target: Glycogen synthase kinase-3 alpha (Homo sapiens) (UniProt P49840); experiment: Inhibition of GSK3alpha in human PBMC at 1 uM
Glycogen synthase kinase-3 alpha (Homo sapiens), sequence (P49840 2-483 limits assumed): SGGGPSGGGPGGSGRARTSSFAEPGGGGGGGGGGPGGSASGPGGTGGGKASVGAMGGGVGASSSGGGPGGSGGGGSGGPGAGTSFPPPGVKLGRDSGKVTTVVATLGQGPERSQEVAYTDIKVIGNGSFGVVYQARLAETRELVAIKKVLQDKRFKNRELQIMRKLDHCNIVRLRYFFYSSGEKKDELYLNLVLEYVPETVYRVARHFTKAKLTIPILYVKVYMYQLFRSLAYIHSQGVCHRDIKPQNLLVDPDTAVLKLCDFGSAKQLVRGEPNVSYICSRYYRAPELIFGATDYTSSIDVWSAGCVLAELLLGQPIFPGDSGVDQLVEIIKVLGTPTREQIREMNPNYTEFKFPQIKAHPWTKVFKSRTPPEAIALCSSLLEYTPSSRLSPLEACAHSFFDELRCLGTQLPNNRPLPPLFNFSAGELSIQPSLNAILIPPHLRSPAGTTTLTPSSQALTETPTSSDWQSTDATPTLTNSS

[3] = target: T2, Serine/threonine-protein kinase D3 (Homo sapiens) (UniProt O94806); experiment: Inhibition of PKD3 in human PBMC at 1 uM
T2 sequence (whole entry): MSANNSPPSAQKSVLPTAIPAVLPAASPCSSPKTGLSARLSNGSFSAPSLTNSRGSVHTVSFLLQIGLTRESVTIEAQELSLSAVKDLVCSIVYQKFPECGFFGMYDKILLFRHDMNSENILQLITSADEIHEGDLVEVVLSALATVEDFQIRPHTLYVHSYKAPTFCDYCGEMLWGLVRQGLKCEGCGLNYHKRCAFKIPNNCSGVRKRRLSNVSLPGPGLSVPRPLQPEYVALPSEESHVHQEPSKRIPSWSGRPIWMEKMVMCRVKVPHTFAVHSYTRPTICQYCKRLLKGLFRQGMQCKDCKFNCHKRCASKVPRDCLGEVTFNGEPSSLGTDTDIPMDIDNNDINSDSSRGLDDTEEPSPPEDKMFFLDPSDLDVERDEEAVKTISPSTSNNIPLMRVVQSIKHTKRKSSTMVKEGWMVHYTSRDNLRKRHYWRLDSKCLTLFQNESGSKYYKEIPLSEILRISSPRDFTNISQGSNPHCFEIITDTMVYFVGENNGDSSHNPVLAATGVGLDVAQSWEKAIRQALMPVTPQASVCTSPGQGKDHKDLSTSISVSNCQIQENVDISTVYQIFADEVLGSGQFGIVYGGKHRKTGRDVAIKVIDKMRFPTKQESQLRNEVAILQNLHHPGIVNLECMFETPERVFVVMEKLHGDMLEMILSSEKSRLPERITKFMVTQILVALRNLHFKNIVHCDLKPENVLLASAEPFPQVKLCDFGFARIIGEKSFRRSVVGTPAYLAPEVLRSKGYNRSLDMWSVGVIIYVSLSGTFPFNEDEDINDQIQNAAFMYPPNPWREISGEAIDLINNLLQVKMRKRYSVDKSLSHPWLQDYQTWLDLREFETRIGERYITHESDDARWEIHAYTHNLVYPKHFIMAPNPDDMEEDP

[4] = target: T3, Dual specificity protein kinase TTK (Homo sapiens) (UniProt P33981); experiment: Inhibition of recombinant human TTK (505 to 798 residues) expressed in bacterial expression system at 1 uM by KINOMEScan assay relative to control
T3 sequence (whole entry): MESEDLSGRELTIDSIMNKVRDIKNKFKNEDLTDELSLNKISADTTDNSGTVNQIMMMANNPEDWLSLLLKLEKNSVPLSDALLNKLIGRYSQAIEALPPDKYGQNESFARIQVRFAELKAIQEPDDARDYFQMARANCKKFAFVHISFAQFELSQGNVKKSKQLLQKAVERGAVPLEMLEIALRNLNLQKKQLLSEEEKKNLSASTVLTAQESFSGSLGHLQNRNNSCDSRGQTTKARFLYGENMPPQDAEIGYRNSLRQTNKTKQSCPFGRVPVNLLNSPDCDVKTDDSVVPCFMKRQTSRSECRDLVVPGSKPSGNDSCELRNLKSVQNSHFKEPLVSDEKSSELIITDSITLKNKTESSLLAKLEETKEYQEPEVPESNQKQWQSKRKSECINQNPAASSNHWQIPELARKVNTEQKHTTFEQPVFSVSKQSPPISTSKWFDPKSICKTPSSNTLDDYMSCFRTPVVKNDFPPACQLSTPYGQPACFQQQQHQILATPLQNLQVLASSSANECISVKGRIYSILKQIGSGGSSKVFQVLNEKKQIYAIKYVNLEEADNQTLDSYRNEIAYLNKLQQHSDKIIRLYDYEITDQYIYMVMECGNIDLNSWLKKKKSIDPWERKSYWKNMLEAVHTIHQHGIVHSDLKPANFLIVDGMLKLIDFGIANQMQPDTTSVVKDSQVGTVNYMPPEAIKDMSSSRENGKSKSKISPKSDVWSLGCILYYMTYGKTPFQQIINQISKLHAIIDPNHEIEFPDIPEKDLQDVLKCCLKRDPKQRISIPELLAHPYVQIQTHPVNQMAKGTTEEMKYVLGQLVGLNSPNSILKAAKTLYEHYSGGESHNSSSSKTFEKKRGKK

Cc1cccc(-c2cc(N)nc3[nH]cc(C#N)c23)c1 was tested, and the inhibition [1] was > 35%, the inhibition [2] was > 35% and the inhibition [3] was > 35%. For the same compound, the inhibition [4] was > 95%.
